The source of these data is patent US9371320B2, “Heterocyclic compound” (TAKEDA PHARMACEUTICAL COMPANY LIMITED, priority 2012, dated 2016).

One assay addresses T1, Tyk2 (Homo sapiens, UniProt P29597).
T1 construct: purchased Invitrogen
The experiment in a line: Tyk2 enzyme inhibition test (LANCE method). Particulars: test compound 1 μM; read-out: Inhibitory rate (%) Tyk2 1 μM. In kind it is biochemical. Put shortly:
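Recombinant Tyk2 (375 ng/mL stock) with ULight-JAK1 peptide (300 nM stock) and ATP (30 μM stock) in HEPES pH 7.5/MgCl2/EGTA/DTT buffer, 1 h at room temperature. Stopped with EDTA plus Eu-anti-phosphotyrosine antibody; TR-FRET read at 665 nm after 1 h. No-enzyme wells define 100% inhibition.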
Background: TR-FRET usually uses a lanthanide donor and a delayed reading to cut background.

For a further assay, the target named is T2, JAK1 (Homo sapiens, UniProt P23458).
T2 construct: purchased Invitrogen
The experiment in a line: JAK1 enzyme inhibition test (LANCE method). In kind it is biochemical. The settings on record: for inhibition at 1 µM: test compound 1 μM, read-out: Inhibitory rate (%) JAK1 1 μM; for inhibition at 10 µM: test compound 10 μM (Ex. 182-220), beside Tyk2 1 μM, read-out: Inhibitory rate (%) JAK1 10 μM. The essentials: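 TR-FRET (LANCE) kinase assay using JAK1 at 187.5 ng/mL, ULight-JAK1 peptide at 300 nM and ATP at 150 μM, given as solution concentrations before mixing. Buffer was 50 mM HEPES pH 7.5 with 10 mM MgCl2 and 2 mM DTT, and the reaction ran 1 h at room temperature. Eu anti-phosphotyrosine signal at 665 nm was expressed relative to a no-enzyme well, taken as 100% inhibition.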

SMILES strings stand for the structures.

T2 sequence (P23458 whole entry): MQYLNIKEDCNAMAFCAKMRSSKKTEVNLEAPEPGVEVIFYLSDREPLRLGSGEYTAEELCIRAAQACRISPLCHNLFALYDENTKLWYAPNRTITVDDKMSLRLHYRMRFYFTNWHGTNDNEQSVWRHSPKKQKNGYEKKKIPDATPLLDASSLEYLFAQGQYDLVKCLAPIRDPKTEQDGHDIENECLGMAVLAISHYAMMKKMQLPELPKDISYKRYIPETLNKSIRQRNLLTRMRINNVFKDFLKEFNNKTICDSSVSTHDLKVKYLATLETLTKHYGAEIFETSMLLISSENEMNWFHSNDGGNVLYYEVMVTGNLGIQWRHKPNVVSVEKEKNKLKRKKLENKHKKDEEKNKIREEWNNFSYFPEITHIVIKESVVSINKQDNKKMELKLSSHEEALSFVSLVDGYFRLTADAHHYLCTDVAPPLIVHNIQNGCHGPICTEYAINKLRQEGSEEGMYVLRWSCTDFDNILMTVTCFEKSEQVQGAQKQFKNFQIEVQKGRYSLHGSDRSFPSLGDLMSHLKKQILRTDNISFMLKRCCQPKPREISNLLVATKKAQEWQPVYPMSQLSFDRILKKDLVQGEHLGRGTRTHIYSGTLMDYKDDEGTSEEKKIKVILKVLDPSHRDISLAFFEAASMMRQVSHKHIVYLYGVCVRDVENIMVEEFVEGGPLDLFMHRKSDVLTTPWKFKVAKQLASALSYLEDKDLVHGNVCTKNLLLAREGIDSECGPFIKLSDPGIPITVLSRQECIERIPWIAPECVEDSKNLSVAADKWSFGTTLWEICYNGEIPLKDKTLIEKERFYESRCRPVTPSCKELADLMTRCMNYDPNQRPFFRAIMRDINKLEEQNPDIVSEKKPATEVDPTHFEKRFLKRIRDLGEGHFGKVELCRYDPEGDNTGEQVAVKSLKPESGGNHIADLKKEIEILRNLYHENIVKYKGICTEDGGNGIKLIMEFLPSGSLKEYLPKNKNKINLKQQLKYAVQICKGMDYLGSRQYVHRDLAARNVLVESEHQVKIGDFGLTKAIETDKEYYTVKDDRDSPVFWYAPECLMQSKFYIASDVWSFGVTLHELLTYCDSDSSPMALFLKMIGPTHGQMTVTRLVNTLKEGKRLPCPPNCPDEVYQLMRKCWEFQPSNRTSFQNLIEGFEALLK
T1 sequence (P29597 whole entry): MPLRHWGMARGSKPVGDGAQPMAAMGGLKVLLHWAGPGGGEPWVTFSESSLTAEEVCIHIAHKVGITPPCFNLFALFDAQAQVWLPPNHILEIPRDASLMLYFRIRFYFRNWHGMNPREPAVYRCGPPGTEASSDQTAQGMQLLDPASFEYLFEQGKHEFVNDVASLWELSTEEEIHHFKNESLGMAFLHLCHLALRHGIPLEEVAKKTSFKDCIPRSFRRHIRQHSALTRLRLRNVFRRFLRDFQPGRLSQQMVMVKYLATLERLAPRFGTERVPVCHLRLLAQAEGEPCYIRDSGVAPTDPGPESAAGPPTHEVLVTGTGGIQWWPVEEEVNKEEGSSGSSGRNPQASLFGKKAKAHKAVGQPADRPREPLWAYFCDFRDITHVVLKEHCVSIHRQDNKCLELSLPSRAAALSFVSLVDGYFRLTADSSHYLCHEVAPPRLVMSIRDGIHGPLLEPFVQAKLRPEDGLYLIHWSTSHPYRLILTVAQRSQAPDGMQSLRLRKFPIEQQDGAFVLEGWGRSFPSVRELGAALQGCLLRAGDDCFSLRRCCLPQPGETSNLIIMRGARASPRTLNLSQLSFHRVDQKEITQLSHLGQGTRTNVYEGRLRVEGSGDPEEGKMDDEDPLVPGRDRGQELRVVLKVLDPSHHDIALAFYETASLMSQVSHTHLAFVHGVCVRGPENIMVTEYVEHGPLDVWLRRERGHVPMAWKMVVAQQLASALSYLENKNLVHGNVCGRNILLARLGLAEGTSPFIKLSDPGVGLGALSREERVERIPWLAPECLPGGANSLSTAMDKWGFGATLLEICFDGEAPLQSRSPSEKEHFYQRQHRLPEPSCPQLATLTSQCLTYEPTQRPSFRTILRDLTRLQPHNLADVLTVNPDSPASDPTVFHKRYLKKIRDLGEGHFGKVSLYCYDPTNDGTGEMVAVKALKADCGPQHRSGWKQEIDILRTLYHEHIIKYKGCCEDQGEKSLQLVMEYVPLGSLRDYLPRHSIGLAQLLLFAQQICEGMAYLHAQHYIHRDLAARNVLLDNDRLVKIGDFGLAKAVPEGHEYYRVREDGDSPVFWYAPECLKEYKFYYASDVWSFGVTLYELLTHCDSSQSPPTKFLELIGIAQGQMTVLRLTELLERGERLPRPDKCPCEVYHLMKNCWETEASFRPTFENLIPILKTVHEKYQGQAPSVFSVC

For the molecule `NS(=O)(=O)c1ccc(-c2nn(C3CCC(=O)CC3)c3cc[nH]c(=O)c23)cc1` [Example 173, 4-(4-oxo-1-(4-oxocyclohexyl)-4,5-dihydro-1H-pyrazolo[4,3-c]pyridin-3-yl)benzenesulfonamide], the inhibition at 1 µM on Tyk2 worked out at 96%; on JAK1, 99%.

As for `N#Cc1ccc(-c2nn(C3CCCC3)c3cc[nH]c(=O)c23)cc1` [Example 201, 4-(1-cyclopentyl-4-oxo-4,5-dihydro-1H-pyrazolo[4,3-c]pyridin-3-yl)benzonitrile], the inhibition at 1 µM on Tyk2 turned out to be 97%. The inhibition at 10 µM at JAK1 came out at 96%.

Take `O=c1[nH]ccc2c1c(-c1ccc(C3CCOCC3)cc1)nn2-c1c(F)cccc1F` [Example 257, 1-(2,6-difluorophenyl)-3-(4-(tetrahydro-2H-pyran-4-yl)phenyl)-1,5-dihydro-4H-pyrazolo[4,3-c]pyridin-4-one]: the results for the inhibition at 1 µM at Tyk2 and at JAK1 were 98% and 96%, respectively.

Consider `CC(=O)N1CCC(c2ccc(-c3nn(-c4c(F)cccc4F)c4cc[nH]c(=O)c34)cc2)C(F)(F)C1` (stereo not drawn) [Example 316, 3-(4-(1-acetyl-3,3-difluoropiperidin-4-yl)phenyl)-1-(2,6-difluorophenyl)-1,5-dihydro-4H-pyrazolo[4,3-c]pyridin-4-one], for which the inhibition at 1 µM on Tyk2 and on JAK1 was 99% throughout.

Regarding `Cc1c[nH]c(=O)c2c(-c3ccc(N4CCOCC4)cc3)nn(-c3c(F)cccc3F)c12` [Example 235, 1-(2,6-difluorophenyl)-7-methyl-3-(4-(morpholin-4-yl)phenyl)-1,5-dihydro-4H-pyrazolo[4,3-c]pyridin-4-one], the inhibition at 1 µM on Tyk2 turned out to be 99%; on JAK1, 92%.

On to `COC(=O)c1c[nH]c(=O)c2c(-c3csc(C(N)=O)c3)cn(C3CCCC3)c12` [Example 34, methyl 3-(5-carbamoyl-3-thienyl)-1-cyclopentyl-4-oxo-4,5-dihydro-1H-pyrrolo[3,2-c]pyridine-7-carboxylate], for which the figures for the inhibition at 1 µM at Tyk2 and at JAK1 were 99% and 92%, respectively.

Turning to `NC(=O)Cc1ccc(-c2nn(-c3c(F)cccc3F)c3c(Br)c[nH]c(=O)c23)cc1` [Example 112, 2-(4-(7-bromo-1-(2,6-difluorophenyl)-4-oxo-4,5-dihydro-1H-pyrazolo[4,3-c]pyridin-3-yl)phenyl)acetamide], the results for the inhibition at 1 µM at Tyk2 and at JAK1 were 98% and 89%, respectively.

As to `N#Cc1c[nH]c(=O)c2c(-c3cccs3)cn(C3CCCC3)c12` [Example 134, 1-cyclopentyl-4-oxo-3-(2-thienyl)-4,5-dihydro-1H-pyrrolo[3,2-c]pyridine-7-carbonitrile], the inhibition at 1 µM on Tyk2 turned out to be 97%; at JAK1, 78%.

On to `CCC(COC)n1cc(-c2ccc(S(N)(=O)=O)cc2)c2c(=O)[nH]ccc21` (stereo not drawn) [Example 17, 4-(1-(1-methoxybutan-2-yl)-4-oxo-4,5-dihydro-1H-pyrrolo[3,2-c]pyridin-3-yl)benzenesulfonamide], for which the values for the inhibition at 1 µM at Tyk2 and on JAK1 were 69% and 87%, respectively.

Turning to `Cc1ccccc1-c1nn(-c2csc(C(=O)O)c2)c2c(=O)[nH]cc(Br)c12` [Example 79, 4-(4-bromo-3-(2-methylphenyl)-7-oxo-6,7-dihydro-1H-pyrazolo[3,4-c]pyridin-1-yl)thiophene-2-carboxylic acid], the inhibition at 1 µM on Tyk2 is 93%; at JAK1, 44%.

Consider `NC(=O)c1cc(-c2cn(C3CCCC3)c3c(C(N)=O)c[nH]c(=O)c23)cs1` [Example 62, 3-(5-carbamoyl-3-thienyl)-1-cyclopentyl-4-oxo-4,5-dihydro-1H-pyrrolo[3,2-c]pyridine-7-carboxamide], for which the values for the inhibition at 1 µM at Tyk2 and at JAK1 were 81% and 69%, respectively.

On to `O=c1[nH]cc(Cl)c2c1c(-c1ccc(N3CCOCC3)cc1)nn2-c1c(F)cccc1F` [Example 161, 7-chloro-1-(2,6-difluorophenyl)-3-(4-(morpholin-4-yl)phenyl)-1,5-dihydro-4H-pyrazolo[4,3-c]pyridin-4-one], for which the inhibition at 1 µM on Tyk2 is 99%; at JAK1, 79%.

With `O=c1[nH]ccc2c1c(-c1ccc(N3CCOCC3)cc1)nn2C1CCCCC1(F)F` (stereo not drawn) [Example 317, 1-(2,2-difluorocyclohexyl)-3-(4-(morpholin-4-yl)phenyl)-1,5-dihydro-4H-pyrazolo[4,3-c]pyridin-4-one], the inhibition at 1 µM at Tyk2 worked out at 99%; at JAK1 it was 96%.

Consider `NC(=O)c1cc(-n2nc(C3CCCC3)c3c(Br)c[nH]c(=O)c32)cs1` [Example 67, 4-(4-bromo-3-cyclopentyl-7-oxo-6,7-dihydro-1H-pyrazolo[3,4-c]pyridin-1-yl)thiophene-2-carboxamide], for which the inhibition at 1 µM on Tyk2 was 91%; on JAK1 it was 55%.

With `C[C@H]1COCCN1c1ccc(-c2nn(-c3c(F)cccc3F)c3cc[nH]c(=O)c23)cc1` [Example 245, 1-(2,6-difluorophenyl)-3-(4-((3S)-3-methylmorpholin-4-yl)phenyl)-1,5-dihydro-4H-pyrazolo[4,3-c]pyridin-4-one], the inhibition at 1 µM at Tyk2 was 100%; on JAK1, 96%.

For the molecule `COc1ccccc1-c1nn(C2CCCC2)c2cc[nH]c(=O)c12` [Example 48, 1-cyclopentyl-3-(2-methoxyphenyl)-1,5-dihydro-4H-pyrazolo[4,3-c]pyridin-4-one], the inhibition at 1 µM came to 7% at Tyk2 and 3% at JAK1.

Take `O=c1[nH]cc(Cl)c2c1c(-c1ccc(N3CCOCC3)c(F)c1)nn2-c1c(F)cccc1F` [Example 206, 7-chloro-1-(2,6-difluorophenyl)-3-(3-fluoro-4-(morpholin-4-yl)phenyl)-1,5-dihydro-4H-pyrazolo[4,3-c]pyridin-4-one]: the inhibition at 1 µM at Tyk2 turned out to be 100%. For the same molecule, on JAK1, the inhibition at 10 µM was 45%.

Regarding `N#Cc1c[nH]c(=O)c2c(Nc3cccc(C(N)=O)c3)cn(C3CCCC3)c12` [Example 178, 3-((7-cyano-1-cyclopentyl-4-oxo-4,5-dihydro-1H-pyrrolo[3,2-c]pyridin-3-yl)amino)benzamide], the inhibition at 1 µM on Tyk2 turned out to be 99%; at JAK1 it was 93%.

Regarding `O=c1[nH]ccc2c1c(-c1ccc3nonc3c1)nn2C1CCCC1` [Example 59, 3-(2,1,3-benzoxadiazol-5-yl)-1-cyclopentyl-1,5-dihydro-4H-pyrazolo[4,3-c]pyridin-4-one], the values for the inhibition at 1 µM at Tyk2 and at JAK1 were 56% and 66%, respectively.

With `NC(=O)COc1ccc(-c2nn(-c3c(F)cccc3F)c3c(Cl)c[nH]c(=O)c23)cc1` [Example 169, 2-(4-(7-chloro-1-(2,6-difluorophenyl)-4-oxo-4,5-dihydro-1H-pyrazolo[4,3-c]pyridin-3-yl)phenoxy)acetamide], the inhibition at 1 µM at Tyk2 came to 99%; on JAK1 it was 79%.

Turning to `Cc1ccccc1-c1nn(-c2csc(C(N)=O)c2)c2c(=O)[nH]cc(Br)c12` [Example 80, 4-(4-bromo-3-(2-methylphenyl)-7-oxo-6,7-dihydro-1H-pyrazolo[3,4-c]pyridin-1-yl)thiophene-2-carboxamide], the inhibition at 1 µM turned out to be 97% on Tyk2 and 82% at JAK1.
